Measurements taken from patent US5360794A, “Disubstituted and deoxy disubstituted derivatives of α-D-mannofuranosides and β-L-gulofuranosides having anti-inflammatory and anti-proliferative activity” (Medicarb Inc., priority 1992, dated 1994).

What was measured:
[1] = tested on: T-lymphocytes (BALB/cBYJ responder spleen cells with mitomycin C treated C57BL/6J stimulator spleen cells); assay: Mixed lymphocyte response (MLR); type: cell-based, mouse; conditions: estimated IC50, 5 days at 37° C., MTT, 1, 10, 30, 100, and 300 μM
Text: i Mixed lymphocyte response (MLR).
The MLR assay measures the effects of a study compound on the activation and antigen presentation of T-lymphocytes, therefore determining immunomodulatory properties. The mouse spleen cell mitogen-induced blastogenesis and the BUD-8 human fibroblast proliferation assays measure the effects of the compounds of the present invention on cellular proliferation of cells involved in the pathogenesis of autoimmune diseases. These two assays are appropriate as screens to ascertain anti-inflammatory and/or autoimmune beneficial activity and are art accepted for such purposes.
The MLR is a classical assay used to measure T cell function by studying the proliferation response of T cells which are activated in vitro by genetically disparate stimulator cells. This is accomplished by co-culturing spleen cells from two different strains of mice. Splenic T cell proliferation occurs as a result of cellular activation signals generated by the ongoing cellular interactions.
In performing MLR assays, BALB/cBYJ mice were euthanized by cervical dislocation and their spleens removed. Single cell suspensions were prepared in culture medium (RPMI-1640 with hepes supplemented with 10% calf serum, 2 mM glutamine, 500 units penicillin/streptomycin, and 4×10^-5 M 2-mercaptoethanol) using a Teflon pestle. The cells were centrifuged at 1500 RPM and the pellets resuspended in ACT (0.15M Tris, 0.14M ammonium chloride, pH 7.2) in order to lyse the red blood cells. After a 5 minute incubation at 37° C. in a waterbath, the cells were washed and resuspended in culture medium. The splenic lymphocytes were counted. C57BL/6J spleen cells, which were used as stimulator cells, were prepared in the same way. The stimulator cells were treated with 50 μg/ml of mitomycin C for 20 minutes at 37° C., then washed five times in culture medium. The proliferative response were measured by culturing 5×10^5 responder spleen cells with […] in 96-well microtiter plates in the presence or absence of test article or vehicle (DMSO). Syngeneic control cultures using mitomycin C treated normal BALB/c spleen cells as the stimulator cells were also run. All cultures were run in triplicate.
Solutions of compounds of the present invention in DMSO were prepared at a stock concentration of 300 mM. Solutions were made in a culture medium to a concentration of 1, 10, 30, 100, and 300 μM. The vehicle DMSO was used as a negative control.
After incubation for 5 days at 37° C. with 5% carbon dioxide, the amount of cell proliferation was measured by adding 20 μl of MTT (10 mg/ml in PBS) (3-[4,5-dimethylthiazol-2-yl]-2,5-diphenyl-tetrazolium bromide) to each well. Plates were incubated for 4 hours at 37° C., after which 180 μl of supernatant was removed and 180 μl of 10% SDS in PBS was added. After an overnight incubation, the optical density (OD) of each well was read on a Molecular Devices microplate reader at 570-650 nm.
The results were determined by calculating the difference between the means of the allogeneic cultures and the means of the syngeneic cultures for each test compound concentration. Differences of the test article groups were compared to the difference of the control group. The percent change from the control was determined and an IC50 estimated. The criteria used to establish activity levels were:
Sixteen (16) novel compounds were assayed for their ability to modulate a Mixed Lymphocyte Response in vitro. The test compounds were added to MLR cultures to give final concentrations of 1, 10, 30, 100, and 300 μM. The responses observed in the test article treated wells were compared to the control wells. […] Based on the estimated IC50, all the test compounds were strong inhibitors of the MLR.

[2] = tested on: various tumor cell lines (leukemia, melanoma, lung cancer, colon cancer, renal cancer, ovarian cancer, brain cancer); assay: Tumor cell line growth inhibition (average over lines of seven cancer types); type: cell-based; conditions: Log 10 values; average GI50 over tumor cell lines from seven cancer types; read-out: GI (μM) Log 10 values (Average GI50) (converted)
Method: The compounds of the present invention were also tested against various tumor cell lines, derived from seven cancer types. These include leukemia, melanoma, lung cancer, colon cancer, renal cancer, ovarian cancer, and brain cancer. Most of the compounds have shown significant activity in various screens, particularly against colon cancer and melanoma.

[3] = Mus musculus, T-lymphocyte, 120 h

Row | GI50 [2] [µM] | Compound | IC50 [1, 3] [µM] | IC50 [1] [µM]
1 | – | CCCCCCCCCOCCCO[C@H]1O[C@H]([C@H](O)CN2CCCCC2)[C@@H]2OC(C)(C)O[C@H]12 [Compound 4, n-Nonyloxypropyl 2,3-O-(1-methylethylidene)-6-deoxy-6-piperidinyl-α-D-mannofuranoside] | 27 | –
2 | 58.9 | C[C@@H](OCCCN(C)C)[C@H]1O[C@H](OCCCc2ccccc2)[C@H]2OC(C)(C)O[C@H]21 [Compound 26, Phenylpropyl 6-deoxy 2,3-O-(1-methylethylidene)-5-O-3'-(N'N'-dimethylamino-n-propyl)-α-D-mannofuranoside] | < 1 | –
3 | – | CCCCCCCCCOCCCO[C@H]1O[C@H]([C@H](O)CN2CCOCC2)[C@@H]2OC(C)(C)O[C@H]12 [Compound 5, n-Nonyloxypropyl 2,3-O-(1-methylethylidene)-6-deoxy-6-morpholinyl-α-D-mannofuranoside] | 19 | –
4 | – | n-Nonyloxypropyl 2,3-O-(1-methylethylidene)-6-deoxy-6-aminothylpyrrolidinyl-α-D-mannofuranoside [Compound 7] | – | 0.75
5 | – | C[C@@H](OCCN1CCCC1)[C@H]1O[C@H](OCCCc2ccccc2)[C@H]2OC(C)(C)O[C@H]21 [Compound 27, Phenylpropyl 6-deoxy 2,3-O-(1-methylethylidene)-5-O-(N'-ethylpyrrolidinyl)-α-D-mannofuranoside] | 5.8 | –
6 | 7.41 | CCCCCCCNC[C@@H](O)[C@H]1O[C@H](OCCCc2ccccc2)[C@H]2OC(C)(C)O[C@H]21 [Compound 21, Phenylpropyl 6-deoxy 2,3-O-(1-methylethylidene)-6-heptylamino-α-D-mannofuranoside] | < 1 | –
7 | 11.5 | CCCCCCCCCOCCCO[C@H]1O[C@H]([C@@H](C)OCCCN(C)C)[C@@H]2OC(C)(C)O[C@H]12 [Compound 10, n-Nonyloxypropyl 2,3-O-(1-methylethylidene)-6-deoxy-5-O-(N,N-dimethylaminopropyl)-α-D-mannofuranoside] | < 1 | –
8 | 2.29 | CCCCCCCCCOCCCO[C@H]1O[C@H]([C@H](O)CNCCCCCCC)[C@@H]2OC(C)(C)O[C@H]12 [Compound 8, n-Nonyloxypropyl 2,3-(1-methylethylidene)-6-deoxy-6-aminoheptyl-α-D-mannofuranoside] | < 1 | –
9 | – | CCCCCCCCCOCCCO[C@H]1O[C@H]([C@H](C)N2CCCC2)[C@@H]2OC(C)(C)O[C@H]12 [Compound 15, n-Nonyloxypropyl 5,6-dideoxy-2,3-O-(1-methylethylidene)-5-pyrrolidinyl-β-L-gulofuranoside] | 0.99 | –
10 | – | CC1(C)O[C@@H]2[C@H](O1)[C@@H](OCCCCN1CCCC1)O[C@@H]2[C@H](O)CO [Compound 29, 4'-(1-Pyrrolidinyl)butyl 2,3-O-(1-methylethylidene)-α-D-mannofuranoside] | 26 | –
11 | – | CCCCCCCCCOCCCO[C@H]1O[C@H]([C@H](O)CN2CCCCCC2)[C@@H]2OC(C)(C)O[C@H]12 [Compound 6, n-Nonyloxypropyl 2,3-O-(1-methylethylidene)-6-deoxy-6-hexamethyleneimino-α-D-mannofuranoside] | < 0.5 | –
12 | 95.5 | C[C@@H]([C@H]1O[C@H](OCCCc2ccccc2)[C@H]2OC(C)(C)O[C@H]21)N1CCCC1 [Compound 24, Phenylpropyl 5,6-dideoxy 2,3-O-(1-methylethylidene)-5-pyrrolidinyl-β-L-gulofuranoside] | < 1 | –
13 | – | CCCCCCCCCOCCCO[C@H]1O[C@H]([C@@H](C)OCCN2CCCC2)[C@@H]2OC(C)(C)O[C@H]12 [Compound 12, n-Nonyloxypropyl 2,3-O-(1-methylethylidene)-6-deoxy-5-O-(N'-ethylpyrrolidinyl)-α-D-mannofuranoside] | < 0.5 | –
14 | 87.1 | CC1(C)O[C@@H]2[C@H](O1)[C@@H](OCCCc1ccccc1)O[C@@H]2[C@H](O)CN1CCCC1 [Compound 20, Phenylpropyl 6-deoxy 2,3-O-(1-methylethylidene)-6-pyrrolidinyl-α-D-mannofuranoside] | < 1 | –
15 | – | CC1(C)O[C@@H]2[C@H](O1)[C@@H](OCCCc1ccccc1)O[C@@H]2[C@H](O)CNCCCN1CCCC1 [Compound 22, Phenylpropyl 6-deoxy 2,3-O-(1-methylethylidene)-6-aminopropylpyrrolidinyl-α-D-mannofuranoside] | 0.85 | –
16 | 9.12 | CCCCCCCCCOCCCO[C@H]1O[C@H]([C@H](O)CN2CCCC2)[C@@H]2OC(C)(C)O[C@H]12 [Compound 3, n-Nonyloxypropyl 2,3-O-(1-methylethylidene)-6-deoxy-pyrrolidinyl-α-D-mannofuranoside] | < 1 | –
